Experimental findings from ChEMBL document CHEMBL5303573, “Mapping human microbiome drug metabolism by gut bacteria and their genes” (Nature, 2019) are described below.

Data set [1] in a line: The drug is tested on Collinsella intestinalis strain: DSM13280 for biotransformation. The drug concentrations were measured before and after a 12-h incubation by liquid-chromatography-coupled mass spectrometry (LC–MS). The conditions noted are these: 2 µM.
Data set [2] is described as follows: The drug is tested on Bacteroides cellulosilyticus strain: DSM14838 for biotransformation. The drug concentrations were measured before and after a 12-h incubation by liquid-chromatography-coupled mass spectrometry (LC–MS). The conditions noted are these: 2 µM.
Data set [3] is described as follows: The drug is tested on Bacteroides finegoldii strain: DSM17565 for biotransformation. The drug concentrations were measured before and after a 12-h incubation by liquid-chromatography-coupled mass spectrometry (LC–MS). The conditions noted are these: 2 µM.
Data set [4] is described as follows: The drug is tested on Bacteroides fragilis strain: ATCC43859 for biotransformation. The drug concentrations were measured before and after a 12-h incubation by liquid-chromatography-coupled mass spectrometry (LC–MS). The conditions noted are these: 2 µM.
Data set [5] can be described thus: The drug is tested on Anaerococcus hydrogenalis strain: DSM7454 for biotransformation. The drug concentrations were measured before and after a 12-h incubation by liquid-chromatography-coupled mass spectrometry (LC–MS). The following applies: 2 µM.
Data set [6] can be described thus: The drug is tested on Anaerotruncus colihominis strain: DSM17241 for biotransformation. The drug concentrations were measured before and after a 12-h incubation by liquid-chromatography-coupled mass spectrometry (LC–MS). The conditions noted are these: 2 µM.
A short description of data set [7]: The drug is tested on Blautia luti strain: DSM14534 for biotransformation. The drug concentrations were measured before and after a 12-h incubation by liquid-chromatography-coupled mass spectrometry (LC–MS). Type of data set: ADME. Also noted: dose 2 uM, timepoint 0 vs 12 hours. The conditions noted are these: 2 µM.
Data set [8] can be described thus: The drug is tested on Clostridium sp. strain: fecal isolate for biotransformation. The drug concentrations were measured before and after a 12-h incubation by liquid-chromatography-coupled mass spectrometry (LC–MS). The conditions noted are these: 2 µM.
The nature of data set [9]: The drug is tested on Clostridium scindens strain: ATCC35704 for biotransformation. The drug concentrations were measured before and after a 12-h incubation by liquid-chromatography-coupled mass spectrometry (LC–MS). The following applies: 2 µM.
Data set [10] can be described thus: The drug is tested on Clostridium sporogenes strain: ATCC15579 for biotransformation. The drug concentrations were measured before and after a 12-h incubation by liquid-chromatography-coupled mass spectrometry (LC–MS). The following applies: 2 µM.
Data set [11] in a line: The drug is tested on Ruminococcus gnavus strain: ATCC29149 for biotransformation. The drug concentrations were measured before and after a 12-h incubation by liquid-chromatography-coupled mass spectrometry (LC–MS). The conditions noted are these: mediterraneibacter gnavus, 2 µM.
Data set [12] can be described thus: The drug is tested on Subdoligranulum variabile strain: DSM15176 for biotransformation. The drug concentrations were measured before and after a 12-h incubation by liquid-chromatography-coupled mass spectrometry (LC–MS). The conditions noted are these: 2 µM.
A short description of data set [13]: The drug is tested on Edwardsiella tarda strain: ATCC23685 for biotransformation. The drug concentrations were measured before and after a 12-h incubation by liquid-chromatography-coupled mass spectrometry (LC–MS). The following applies: 2 µM.
A short description of data set [14]: The drug is tested on Enterobacter cancerogenus strain: ATCC35316 for biotransformation. The drug concentrations were measured before and after a 12-h incubation by liquid-chromatography-coupled mass spectrometry (LC–MS). The following applies: 2 µM.
A short description of data set [15]: The drug is tested on Providencia rettgeri strain: DSM1131 for biotransformation. The drug concentrations were measured before and after a 12-h incubation by liquid-chromatography-coupled mass spectrometry (LC–MS). Type of data set: ADME. The arrangement: dose 2 uM, timepoint 0 vs 12 hours. The conditions noted are these: 2 µM.
For data set [16] the following is noted: bacteroides stercoris, 12 h, 2 µM.
Description: The drug is tested on Bacteroides stercoris strain: ATCC43183 for biotransformation. The drug concentrations were measured before and after a 12-h incubation by liquid-chromatography-coupled mass spectrometry (LC–MS)
The conditions of data set [17]: bacteroides thetaiotaomicron, 12 h, 2 µM.
Description: The drug is tested on Bacteroides thetaiotaomicron strain: 3731 for biotransformation. The drug concentrations were measured before and after a 12-h incubation by liquid-chromatography-coupled mass spectrometry (LC–MS)
For data set [18] the following is noted: parabacteroides distasonis, 12 h, 2 µM.
Description: The drug is tested on Parabacteroides distasonis strain: ATCC8503 for biotransformation. The drug concentrations were measured before and after a 12-h incubation by liquid-chromatography-coupled mass spectrometry (LC–MS)
Data set [19] is described as follows: The drug is tested on Bacteroides caccae strain: ATCC43185 for biotransformation. The drug concentrations were measured before and after a 12-h incubation by liquid-chromatography-coupled mass spectrometry (LC–MS). The conditions noted are these: 2 µM.
Data set [20] is described as follows: The drug is tested on Parabacteroides merdae strain: ATCC43184 for biotransformation. The drug concentrations were measured before and after a 12-h incubation by liquid-chromatography-coupled mass spectrometry (LC–MS). The following applies: 2 µM.

On to `O=C1CN2Cc3c(ccc(Cl)c3Cl)N=C2N1` [ANAGRELIDE], for which the “Bacterial Biotransformation” value in [1], in [2], in [3], in data set [4], in data set [5] and in data set [6] was “Compound NOT metabolized” each time. Also, the “Bacterial Biotransformation” value is “Compound NOT metabolized” in data set [7]; “Compound metabolized” in data set [8]; “Compound NOT metabolized” in [9]; “Compound NOT metabolized” in [10]; “Compound NOT metabolized” in [11]; “Compound NOT metabolized” in data set [12]. Moreover, the “Bacterial Biotransformation” value in data set [13], in data set [14], in [15], in [16], in data set [17] and in data set [18] was “Compound NOT metabolized” each time.
Consider `CCOC(=O)[C@H](CCc1ccccc1)N[C@H]1CCc2ccccc2N(CC(=O)O)C1=O` [BENAZEPRIL], for which the “Bacterial Biotransformation” value is “Compound NOT metabolized” in data set [1]; “Compound metabolized” in data set [19]; “Compound NOT metabolized” in data set [2]; “Compound metabolized” in data set [3]; “Compound metabolized” in [4]; “Compound metabolized” in data set [20]. The “Bacterial Biotransformation” value in data set [5] is “Compound NOT metabolized”; in data set [6], “Compound NOT metabolized”; in data set [8] it was “Compound NOT metabolized”; in data set [9], “Compound NOT metabolized”; in [10], “Compound metabolized”; in data set [11], “Compound NOT metabolized”. The “Bacterial Biotransformation” value was “Compound NOT metabolized” in data set [12]; “Compound NOT metabolized” in data set [13]; “Compound NOT metabolized” in [14]; “Compound metabolized” in data set [16]; “Compound metabolized” in data set [17]; “Compound metabolized” in data set [18].
In the case of `CCN(CC)C(=O)/C(C#N)=C/c1cc(O)c(O)c([N+](=O)[O-])c1` [ENTACAPONE], the “Bacterial Biotransformation” value in data set [1], in data set [19], in [2], in data set [3], in data set [4] and in data set [20] was “Compound metabolized” each time. For the same compound, the “Bacterial Biotransformation” value in data set [5], in data set [6], in [7], in data set [8], in data set [9] and in data set [10] was “Compound metabolized” throughout. For the same compound, the “Bacterial Biotransformation” value in data set [11], in [12], in data set [13], in data set [14], in data set [16] and in data set [17] was “Compound metabolized” each time. Further, in data set [18], the “Bacterial Biotransformation” value was “Compound metabolized”.
With `CC[C@H](C)C(=O)O[C@H]1C[C@@H](C)C=C2C=C[C@H](C)[C@H](CC[C@@H]3C[C@@H](O)CC(=O)O3)[C@H]21` [LOVASTATIN], the “Bacterial Biotransformation” value in data set [1] was “Compound NOT metabolized”; in [19], “Compound NOT metabolized”; in data set [2], “Compound metabolized”; in [4], “Compound NOT metabolized”; in data set [20] it was “Compound metabolized”; in data set [5], “Compound metabolized”. The “Bacterial Biotransformation” value in data set [6] was “Compound metabolized”; in [7] it was “Compound NOT metabolized”; in [8] it was “Compound metabolized”; in data set [9], “Compound metabolized”; in data set [11], “Compound NOT metabolized”; in data set [12], “Compound NOT metabolized”. Besides, the “Bacterial Biotransformation” value in data set [13] is recorded as “Compound NOT metabolized”; in data set [14], “Compound metabolized”; in [15], “Compound metabolized”; in data set [16] it was “Compound NOT metabolized”; in data set [17], “Compound NOT metabolized”; in data set [18], “Compound metabolized”.
In the case of `CC#C[C@]1(O)CC[C@H]2[C@@H]3CCC4=CC(=O)CCC4=C3[C@@H](c3ccc(N(C)C)cc3)C[C@@]21C` [MIFEPRISTONE], the “Bacterial Biotransformation” value is “Compound NOT metabolized” in data set [1]; “Compound NOT metabolized” in data set [19]; “Compound NOT metabolized” in data set [2]; “Compound NOT metabolized” in [3]; “Compound metabolized” in data set [4]; “Compound NOT metabolized” in [20]. Besides, the “Bacterial Biotransformation” value in [5] is on record as “Compound NOT metabolized”; in data set [6] it was “Compound NOT metabolized”; in data set [7] it was “Compound NOT metabolized”; in data set [8] it was “Compound metabolized”; in data set [9], “Compound NOT metabolized”; in data set [11], “Compound NOT metabolized”. For the same compound, the “Bacterial Biotransformation” value in data set [12] is reported as “Compound NOT metabolized”; in [13], “Compound NOT metabolized”; in [14] it was “Compound NOT metabolized”; in data set [15] it was “Compound NOT metabolized”; in [16], “Compound metabolized”; in data set [17], “Compound NOT metabolized”. In addition, the “Bacterial Biotransformation” value in data set [18] was “Compound NOT metabolized”.
On to `CC(C(=O)O)c1ccc2c(c1)Cc1cccnc1O2` (stereo not given) [PRANOPROFEN], for which the “Bacterial Biotransformation” value in data set [19] is “Compound metabolized”; in [2] it was “Compound metabolized”; in [3], “Compound metabolized”; in data set [4], “Compound metabolized”; in data set [20] it was “Compound metabolized”; in data set [5], “Compound NOT metabolized”. In addition, the “Bacterial Biotransformation” value in data set [6] was “Compound metabolized”; in [7], “Compound NOT metabolized”; in data set [8], “Compound metabolized”; in [9] it was “Compound NOT metabolized”; in [11], “Compound NOT metabolized”; in data set [12], “Compound NOT metabolized”. Besides, the “Bacterial Biotransformation” value in [13] is reported as “Compound metabolized”; in data set [14], “Compound NOT metabolized”; in [15] it was “Compound metabolized”; in [16], “Compound metabolized”; in [17], “Compound metabolized”; in [18], “Compound metabolized”.
